Measured values: patent US20220304978A1, “INHIBITING MESANGIAL CELL ACTIVATION” (Chinook Therapeutics, Inc., priority 2019, published 2022)
Entries after “also recorded” stand apart in the source; their conditions may differ.

Columns and labels:
g-ddY mice = assay: UACR (albuminuria) in g-ddY mouse model of IgA nephropathy; assay type: in vivo
Excerpt: The grouped ddY (g-ddY) mouse is a spontaneous model of early-onset IgA nephropathy characterized by IgA immune complex deposition in the mesangium of the kidney, leading to significant proteinuria, glomerular hypercellularity, mesangioproliferative glomerular lesions, glomerular sclerosis and reduced kidney function, all hallmarks of human IgA nephropathy (J Am Soc Nephrol 23: 1364-1374, 2012). Consistent with human IgA nephropathy, the mesangial IgA deposits in the g-ddY mouse are also accompanied by deposition of IgG and complement C3.

[1] = tested on: kidney tissue of g-ddY mice; assay: Gene Set Enrichment Analysis (GSEA) hallmark gene sets, g-ddY kidney RNA-seq; assay type: in vivo, mouse; details: 30 mg/kg/day
[2] = tested on: kidney tissue of g-ddY mice; assay: Ingenuity Pathway Analysis (IPA) canonical pathways, g-ddY kidney RNA-seq; assay type: in vivo, mouse; details: 30 mg/kg/day
ET-1 stimulated HRMC = assay: Hallmark gene set enrichment in ET-1 stimulated HRMC treated with atrasentan; details: g-ddY and HRMC model systems; HRMC: atrasentan 1 nM and 25 nM with ET-1
[3] = tested on: primary human renal mesangial cells (HRMCs); assay: Proliferation (BrdU) of HRMCs stimulated with IgA-containing immune complexes from IgAN patients; assay type: cell-based; details: immune complexes purified from three patients with IgA nephropathy
Excerpt: Primary human mesangial cells in a culture were stimulated with pathogenic galactose deficient (Gd)-IgA containing immune complexes isolated from human IgA nephropathy patients. […] Specifically, pathogenic IgA-containing immune complexes were isolated from serum from either IgA nephropathy patients or age, gender and ethnicity-matched healthy individuals. Frozen serum was purchased from BioIVT and IgA-containing immune complexes were purified using jacalin affinity chromatography. […] Purified IgA-containing immune complexes were concentrated using a 100K Amicon filtration unit and the amount of total IgA and galactose-deficient IgA (Gd-IgA) in the immune complexes was measured by ELISA (ThermoFisher and IBL America, respectively). […] See, e.g., Novak et. al., Kidney International, 67, pp. 504-516; 2005; Novak et. al., Nephrol. Dial. Transplant, 26, pp. 3451-3457; 2011; Liang et. al., Cell Physiol. Biochem., 36, pp. 1793-1808; 2015; Nguyen et. al., Clin. Kidney 1, 12 (2), pp, 232-238; 2019.

[4] = 20 and 30 mg/kg/day, approximately 5 days

CCCCN(CCCC)C(=O)CN1C[C@H](c2ccc3c(c2)OCO3)[C@@H](C(=O)O)[C@@H]1c1ccc(OC)cc1 [atrasentan, (2R,3R,4S)-4-(1,3-benzodioxol-5-yl)-1-[2-(dibutylamino)-2-oxoethyl]-2-(4-methoxyphenyl)pyrrolidine-3-carboxylic acid]
effect to reduce UACR from baseline compared to the control group (g-ddY mice; 10 mg/kg/day): not significant
albuminuria compared to baseline (g-ddY mice; 10 mg/kg/day, approximately 5 days): not significantly changed from baseline
effect to reduce UACR from baseline compared to the control group (g-ddY mice; 20 mg/kg/day, P=0.0498, un-paired t-test): statistically significant
albuminuria compared to baseline (g-ddY mice; 20 mg/kg/day, approximately 5 days, P=0.0593): reduced from baseline to a similar extent
effect to reduce UACR from baseline compared to the control group (g-ddY mice; 30 mg/kg/day, P=0.029): statistically significant
albuminuria compared to baseline (g-ddY mice; 30 mg/kg/day, approximately 5 days, paired t-test): significantly (P=0.0002, paired two-sided t-test) reduced
albuminuria compared to control g-ddY mice (g-ddY mice; [4]): significantly reduced
albuminuria lowering, reduction from baseline (g-ddY mice; [4]): > 60%
cell proliferation associated signaling (mitotic spindle and G2M checkpoint) [1]: reduced
inflammatory response signaling [1]: reduced
IL-6 signaling [2]: reduced
NF-κB signaling [2]: reduced
PDGF signaling [2]: reduced
expression of hallmark gene sets (negative enrichment scores) (ET-1 stimulated HRMC): under-expression
hyperproliferation of HRMCs induced by IgA containing immune complexes [3]: reduces the proliferation; also recorded: significantly attenuated
